Measurements from the METLIN SMRT retention time set (Domingo-Almenara et al. 2019).

assay: gradient 5% acetonitrile 3 min, to 50% in 2 min, to 85% in 15 min, held 3 min, 100 µL/min; details: column: Zorbax Extend-C18 2.1 x 50 mm; eluents: water / acetonitrile, 0.1% formic acid
How it was run: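 Standards, all pure, were combined into mixtures of ~100 molecules and run at 100 μL/min on a Zorbax Extend-C18 column (2.1 × 50 mm, 1.8 μm) with water and acetonitrile, each containing 0.1% formic acid. A coupled quadrupole time-of-flight mass spectrometer operated in positive and negative ionization mode. Retention time values come from computationally picked adduct peaks, each inspected manually.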

Row | SMILES | RP-LC retention time
1 | O=C(NCCCn1cccc1)C1COc2ccccc2O1 (centres undefined) | 803 s
2 | CC(C)(C)NC(=O)Cc1cccn1-c1ccc(Cl)cc1 | 994 s
3 | CC(=O)N1CCCN(C(=O)c2ccc(C#N)cc2)CC1 | 589 s
4 | COc1ccc(NC(=O)Cn2c(N3CCCCC3)nc(C)cc2=O)c(OC)c1 | 680 s
5 | COc1cc(NC(=O)Cn2cccc2-c2nnc(C3CCC3)o2)cc(OC)c1 | 876 s
6 | CC1CCN(c2ccc(-c3noc(CN4CCN(c5ccccc5F)CC4)n3)cn2)CC1 | 1090 s
7 | COc1ccc2c(c1)-c1nc(NC(=O)c3cc(Cl)ccc3OC)sc1CC2 | 1300 s
8 | CCCN1C(=O)c2ccccc2C(C(=O)NC2CC2)C1c1cc(OC)c(OC)c(OC)c1 (centres undefined) | 696 s
9 | CCOc1ccc(NC(=O)Cn2c(CC)nc3cc4c(cc32)OCCO4)cc1 | 670 s
10 | COCCN1C(=O)C(CC(=O)NCCCn2cccn2)=C2CCCCC21 (centres undefined) | 634 s
11 | Cc1cc(N2CCN(C(=O)c3cccc(F)c3)CC2)nc(N2CCCCC2)n1 | 670 s
12 | COC(=O)c1c(NCc2ccc(OC)c(OC)c2)c2cccc(Cl)c2[nH]c1=O | 736 s
13 | CCN(CC)c1ccc(-c2noc(CN3CCN(c4ncccn4)CC3)n2)cn1 | 655 s
14 | O=C(NCCN1CCOCC1)c1nc(-c2ccnc(N3CCCCCC3)c2)no1 | 564 s
15 | CCOCC(=O)N(C)CCc1noc(-c2ccc(C(=O)N3CCCC3)cc2)n1 | 648 s
16 | CCOC(=O)N1CCC2(CC1)N=C(c1ccc(Cl)cc1)CC(c1cccc(OCC)c1O)N2 (centres undefined) | 871 s
17 | O=C(NC1CCCCC1)N1CCc2nc(-c3ccc(F)cc3)ncc2C1 | 882 s
18 | CCCNC(=O)C1CCCN(C(=O)c2[nH]c(C)c(C(=O)OC)c2C)C1 (centres undefined) | 668 s

Now from value to compound:

Row | RP-LC retention time | SMILES
19 | 627 s | O=S(=O)(CCOc1ccc(F)cc1)Nc1cccnc1
20 | 998 s | O=C(Nc1cccc(F)c1)N1CCCC1c1nc(-c2ccc(F)cc2F)no1 (centres undefined)
21 | 1240 s | Cc1ccc(-c2coc(-c3ccc(NC(=O)CC(C)C)cc3)n2)c(C)c1
22 | 986 s | CCN1C(=O)c2cc(S(=O)(=O)NCc3ccccc3)ccc2Oc2cccnc21
23 | 1110 s | COc1cccc(-c2noc(Cn3c(=O)n(C(C)C)c(=O)c4ccccc43)n2)c1
24 | 947 s | Cc1ccc(NC(=O)N(C)CCc2noc(COc3ccccc3)n2)cc1C
25 | 845 s | C[C@@H](Nc1cc(NS(=O)(=O)N2CCC2)nc(SCc2cccc(F)c2F)n1)[C@@H](O)CO
26 | 687 s | Cc1nc(S(=O)(=O)N2CCC(C(=O)N3CCN(c4ccccc4)CC3)CC2)cn1C
27 | 827 s | Cc1nnc(-c2ccc3ccn(CC(=O)N4CCN(c5ccc(F)cc5)CC4)c3c2)o1
28 | 692 s | CC(C)C(NC(=O)Cc1ccccc1F)C(=O)Nc1nc2ccccc2[nH]1 (centres undefined)
29 | 657 s | COc1ccc(C2C(C(=O)O)c3ccccc3C(=O)N2C)cc1OC (centres undefined)
30 | 872 s | Cc1ccsc1-c1nnc(CC(=O)N2CCN(c3ccccc3)CC2)o1
31 | 814 s | Cn1c(=O)c(N2CCC(NC(=O)NCc3ccc(F)cc3)CC2)nc2ccccc21
32 | 1100 s | Cc1nc(-c2cc(S(=O)(=O)Nc3ccc(F)c(F)c3)c(C)s2)sc1C
33 | 932 s | CCn1c(=O)sc2cc(S(=O)(=O)N3CCC(C(=O)NCc4cccc(C)c4)CC3)ccc21
34 | 863 s | Cc1cnn(Cc2nc(-c3ccc(NC(=O)C(C)(C)C)cc3)oc2C)c1
35 | 843 s | CSc1ccc(-c2nc3ncccn3c2Nc2cccc(C)c2)cc1
36 | 844 s | COc1cccc(NS(=O)(=O)c2cc(-c3nc(C)c(C(=O)N4CCCC4)s3)cs2)c1
37 | 947 s | Cc1c(S(=O)(=O)Nc2cccc(-c3ccc4ccccc4n3)c2)cnn1C(F)F
38 | 790 s | NC(=O)C1CCN(c2ncnc3c2c(-c2ccccc2)cn3-c2cccc(Cl)c2)CC1
39 | 824 s | COc1cc(-c2noc(-c3nn(-c4cccc(F)c4)ccc3=O)n2)cc(OC)c1OC
40 | 867 s | O=S(=O)(c1cccn2cnnc12)N(Cc1ccccc1F)c1ccc(F)c(F)c1
41 | 984 s | O=S(=O)(c1cc(-c2nnc(-c3ccc(F)cc3)o2)ccc1Cl)N1CCOCC1
42 | 1110 s | COc1ccc(NC(=O)c2cc(C)n3nc(-c4ccco4)cc3n2)cc1Cl
43 | 965 s | CCc1cc(C(=O)Nc2ccc(C#N)cc2)nc2ccnn12
44 | 998 s | Cc1ccc(C)c(NC(=O)C2CCN(S(C)(=O)=O)c3cc(C)ccc3O2)c1 (centres undefined)
